Results on 2 compounds are retold here after PMC4900628, “Critical Evaluation of P2X7 Receptor Antagonists in Selected Seizure Models” (PLoS ONE, 2016).

On the set-up of data set [1]: method as in earlier work. The conditions noted are these: 45.5 mg/kg i.p. every 48h for 1 month, ref [11] of S1 File, cited from earlier work.
For data set [2], the system named is electroshock-induced tonic (hindlimb extension) seizures. As to the kind of experiment: Maximal electroshock seizure threshold test (MES-T). In kind it is in vivo. The note with it: mice. Here is the method:
The stimulus train was applied via ear-clip electrodes (sinusoidal pulses 4-14 mA, 50 Hz, 0.2 s duration) by means of a constant current stimulator (rodent-shocker type 221; Hugo Sachs Elektronik, March-Hugstetten, Germany). […] Groups of 20 mice were used. Control groups, which received the corresponding vehicle, were tested together with the compound-treated groups on the same experimental day. Current intensity-effect curves were obtained on the basis of the number of animals responding with the endpoint at the corresponding current value. The results are calculated as convulsive current fifty (CC50) values (current intensity in mA, necessary to produce tonic hindlimb extension in 50% of the mice tested) including the confidence limits for 95% probability. […] Chemicals, Toronto, Canada) was slowly added. The pH was adjusted with 1N NaOH (similar amount of NaOH as HCl), all with continuous stirring. […] The drug solutions or suspensions were prepared immediately before use; all doses refer to the salts. Animals in the control group received equivalent volumes of the vehicle (in mice always 10 ml/kg, in rats 1 ml/kg [JNJ], 3 ml/kg [AFC] or 4 ml/kg [BBG, TIIAS], depending on the solubility of the different compounds). Doses and peak time effects were selected on the basis of effective doses from corresponding in vivo studies in the literature: BBG (e.g.), tanshinone IIA (e.g.) and from manufacturer's experimental data: AFC, JNJ (see, [80]). Data were analysed using SigmaPlot (vers. 12.0, Systat Software, Erkrath, Germany) and SPSS (IBM SPSS Statistics 20, […], Germany), respectively. Results are expressed as mean ± SEM. […] In the PTZ-T, the number of animals in the group with clonic seizures and the latency time were analysed using Fisher's exact probability test and the Mann-Whitney rank sum test, respectively. […] In the PTZ-kindling model, the mean seizure stage within a group was calculated in relation to the number of PTZ-injections. […] In fully kindled rats, the calculated mean seizure stage within a group after vehicle- and compound-treatment were compared using a paired t-test. […]
(In general: In the maximal electroshock model the usual endpoint is tonic extension of the hind limbs.)

For data set [3], the system named is Iba 1 and GFAP immunoreactivity. Put plainly: Iba 1 and GFAP immunohistochemistry, hippocampus of PTZ-kindled rats. In kind it is in vivo. The note with it: hippocampus CA3, 24h after the 25th PTZ injection, pre-treated with AFC or JNJ. Here is the method: One day after the last kindling session (after the 25th injection), vehicle/PTZ and compound/PTZ-treated rats as well as vehicle-only-treated or non-treated (naïve) rats as controls were transcardially perfused under deep CO2-anesthesia with 0.9% NaCl-solution, 2% paraformaldehyde (PFA, in 0.1 M sodium acetate buffer, pH 6.5) and 2% PFA/0.1% glutaraldehyde (in 0.1 M sodium borate buffer, pH 8.5) (see [73]). Brains were removed immediately and placed for 24 h in 2% PFA without glutaraldehyde (in 0.1 M sodium borate buffer, pH 8.5) at 4°C for post-fixation. […]
For immunohistochemical studies, free-floating slices were incubated in 0.1 M Sørensen’s phosphate buffer (SPP) containing 1% H2O2 for 25 min. […] The immunoreactivity was evaluated using a light microscope (Axioskop, Zeiss) equipped with a CCD digital camera (AxioCam, ICc 1, Zeiss). For quantitative analysis of the GFAP and Iba 1-staining, images (20x magnification) from the hippocampal CA3 region of vehicle-only (controls) and vehicle/PTZ-treated animals (n = 10) were recorded at constant microscope adjustment and were evaluated with the LSM (LSM 510 Meta, Zeiss) using the semiautomatic image analysis software “Histogram” function. Significant differences were determined by calculating the abundance of densely stained pixels (pixel values lower than 67% of the background) using a two-tailed Wilcoxon rank sum test. […]

On to `CCOc1ccc(Nc2ccc(/C(=C3C=C/C(=[N+](/CC)Cc4cccc(S(=O)(=O)[O-])c4)C=C/3C)c3ccc(N(CC)Cc4cccc(S(=O)(=O)O)c4)cc3C)cc2)cc1` [Brilliant Blue G], for which the “brain-plasma ratio in mice” value in data set [1] is given as 0.02. In addition, the “brain concentrations in mice” value in data set [1] (spectrophotometric analysis) is reported as 150 nM.

In the case of `O=C(NCC1(N2CCN(c3ccccc3)CC2)CCOCC1)c1cccnc1Sc1ccccc1` [JNJ-47965567, N-[[4-(4-phenyl-piperazin-1-yl)tetrahydro-2H-pyran-4-yl]-methyl]-2-(phenyl-thio) nicotinamide], in data set [2] (AFC 50 mg/kg, JNJ 30 mg/kg, alone), the “seizure threshold in MES-T at the higher doses” value was “small, but non-significant increase in seizure threshold”. Also, the “anticonvulsant effectiveness of co-administration with carbamazepine compared to carbamazepine alone (MES-T)” value in data set [2] (AFC 25 and 50 mg/kg s.c. or JNJ 15 and 30 mg/kg s.c. 30 min before, with carbamazepine 7 mg/kg i.p., P < 0.01) is “significantly increased the anticonvulsant effectiveness”. Also, the “immunostaining for Iba 1 and GFAP compared to vehicle/PTZ-treated animals” value in data set [3] is “clearly reduced”.
